For 72 compounds, IC50 and IC90 results are on record in PubChem BioAssay AID449764 (Southern Research Specialized Biocontainment Screening …, 2010).

The structures appear in SMILES notation.

The assay has as its system Mycobacterium tuberculosis H37Rv growth inhibition, no glycerol. In words: Mycobacterium tuberculosis H37Rv growth inhibition, no glycerol, confirmatory dose response (AID 449764).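 As to all read-outs here: growth read after 7 days of incubation.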 Conditions: for IC90: measured here: IC90 growth inhibition.

The term IC50 denotes the concentration that gives 50% inhibition. One may read the IC90 as the point of the concentration-response curve where the effect stands at 90%. High values mean a need for much substance, low ones an effect from little substance. Regarding `C#CCOCCOCCOCCNc1nc(N2CCN(C(=O)CCCCCCCCCCNC(=O)[C@H](CCCCN)n3cc(CCCC(=O)O)nn3)CC2)nc(N2CCN(C(=O)CCCCCCCCCCNC(=O)[C@H](CCCN=C(N)N)n3cc(C[C@@H](C)CC)nn3)CC2)n1`, the IC50 is 6.73 µM and the concentration for an effect of 90% (IC90) was 9.93 µM.
Turning to `Cc1ccc(C(=O)/C=C/C(=O)c2ccc(C)cc2)cc1`, the IC50 is 4.34 µM and the IC90 turned out to be 5.87 µM.
With `CCCCCCCCn1cnc2c(N)c(C)c(C)cc21`, the IC50 was 59.8 µM and the concentration for an effect of 90% (IC90) is 78.3 µM.
On the same counts, the results for `CCc1ccc(C2c3[nH]c4ccccc4c3CCN2C(=O)c2ccc(=O)n(C)n2)cc1` (centres undefined) are 51.3 µM and 93.4 µM.
On to `C=CCOc1ccc2c(c1)C(=NO)c1cc(OCC=C)ccc1-2`, for which the concentration for half-maximal inhibition (IC50) was 28 µM and the IC90 was above 100 µM.
Turning to `Cc1ccc(C(=O)Sc2cccccc2=O)cc1`, the IC50 is 1.53 µM and the 90% effect concentration (IC90) stood at 2.12 µM.
On the same counts, the results for `COc1ccc(N/N=C(/N=Nc2nc(C)cc(=O)[nH]2)c2ccccc2)cc1` are 5.64 µM and 6.4 µM.
The like results for `CCCC(/C=C/c1ccc(OC(C)=O)cc1)=C1/c2ccccc2C(=O)N1c1ccccc1` were, in that order, 13.2 µM and 20.9 µM.
As to `FC(F)(Cl)c1nnc2ccc(Cl)nn12`, the IC50 was 0.73 µM and the IC90 was found to be 0.8 µM.
The like results for `COc1ccc(N=c2cc(-c3ccc(O)cc3)oc3ccccc23)cc1` were, in that order, 23.3 µM and 26.5 µM.
On the same counts, the results for `COc1ccc(SC[C@H](Cc2ccccc2)N2CCN(CCc3ccccc3)CCC2=O)cc1` are 40.6 µM and 51.4 µM.
On the same counts, the results for `CCCc1ccc(C2=Nn3c(nnc3C(C)C)SC2)cc1` are 29.6 µM and 51.1 µM.
With `Cn1c(/C=N/Nc2nc3ccccc3[nH]2)nc2ccccc21`, the concentration for half-maximal inhibition (IC50) is 61.8 µM and the IC90 was found to be 79.8 µM.
On the same counts, the results for `O=C1C(=O)c2ccccc2-c2ccccc21` are 7.83 µM and 10.6 µM.
Turning to `S=c1nc2ccccc2c2nc(-c3ccccc3)[nH]n12`, the half-maximal inhibitory concentration (IC50) was 17.6 µM and the IC90 amounted to 24.5 µM.
On to `O=C(NNC(=O)C12CC3CC(CC(C3)C1)C2)c1ccccn1`, for which the IC50 is 21.8 µM and the 90% effect concentration (IC90) amounted to 24.4 µM.
On the same counts, the results for `Cc1cnc(NC(=O)NCC2CCCC(CNC(=O)Nc3ncc(C)s3)C2)s1` (centres undefined) are 36.2 µM and above 50 µM.
Consider `COc1cc2nc(Nc3ccc(C)c(Cl)c3)nc(N)c2cc1OC`, for which the concentration for half-maximal inhibition (IC50) was 58.7 µM and the 90% effect concentration (IC90) turned out to be 66.8 µM.
For the compound `Cc1cc(-c2nnc3n2CCCCC3)c(C)n1-c1ccccc1`, the half-maximal inhibitory concentration (IC50) is 45.3 µM and the IC90 was found to be 73.8 µM.
On the same counts, the results for `O=C(/C=C/c1ccc(O)cc1)c1ccc(NC2=C(N3CCCCC3)C(=O)c3ccccc3C2=O)cc1` are 17.5 µM and 22.4 µM.
The like results for `CCCCOc1ccc(Br)cc1/C(C)=N/NC1=NCCN1` were, in that order, 22.4 µM and 31.8 µM.
`N#Cc1ccc(OCC(O)CN2CCN(c3ncc(C(F)(F)F)cc3Cl)CC2)cc1` (centres undefined): the half-maximal inhibitory concentration (IC50) is 15.4 µM and the concentration for an effect of 90% (IC90) is 24.3 µM.
The like results for `O=C(N/N=C(\c1ccccc1)c1ccccn1)c1ccccc1Cl` were, in that order, 12.1 µM and 15.5 µM.
The like results for `O=C(c1cc(COc2ccc(F)cc2F)on1)N1CCCC(c2ccccc2)C1` (centres undefined) were, in that order, 53.8 µM and above 100 µM.
For the compound `CCn1c2ccccc2c2cc(CN3CCN(Cc4cc(OC)ccc4O)CC3)ccc21`, the half-maximal inhibitory concentration (IC50) is 17.2 µM and the IC90 came out at 23.4 µM.
In the case of `CC(=O)c1ccc(-n2cc(-c3ccc(C(C)(C)C)cc3)[n+]3c2SCCC3)cc1`, the IC50 is 20.3 µM and the concentration for an effect of 90% (IC90) came to 26.9 µM.
On the same counts, the results for `CCOC(=O)CSc1cc(=O)n(C)c2cc(Cl)ccc12` are below 0.2 µM and 18.3 µM.
On the same counts, the results for `COc1ccc(NC(=O)CSC2CCCCC2)cc1` are 76.3 µM and above 100 µM.
Consider `CCOC(=O)c1csc(-c2snnc2C)n1`, for which the IC50 is 28.4 µM and the concentration for an effect of 90% (IC90) is above 100 µM.
The like results for `Cc1ccc(NC(=O)Cn2ccsc2=N)c([N+](=O)[O-])c1` were, in that order, 18.5 µM and 34.7 µM.
The like results for `CS(=O)(=O)c1nc(-c2ccccc2)cc(C(F)(F)F)n1` were, in that order, 18 µM and 27.6 µM.
On the same counts, the results for `CCOC(=O)c1cnc(Nc2nc3ccccc3o2)nc1CSC(=S)N(CC)CC` are 49.3 µM and 56.6 µM.
For the compound `Cc1ccc(C2=NNC3(CCOC(C)(C)C3)S2)cc1` (centres undefined), the IC50 is 27.1 µM and the 90% effect concentration (IC90) amounted to 41.3 µM.
On the same counts, the results for `N#CC(C#N)=c1ccc2c(c1)N1C3=C(CCCC3)CC3CCCCC31N=2` (centres undefined) are 12.5 µM and 13.5 µM.
Turning to `CN1C(C(=O)NCc2ccc(OC(F)(F)F)cc2)CC2Cn3c(nc4cc(Cl)c(Cl)cc43)C21` (centres undefined), the IC50 is 44.2 µM and the IC90 is 70.4 µM.
On the same counts, the results for `Cc1cc2[nH]c3c(c[n+](C)c4ccccc34)c2cc1C` are 9.9 µM and 15.6 µM.
On the same counts, the results for `COc1ccccc1N(O)C1CC(=O)N(c2ccc(Br)cc2)C1=O` (centres undefined) are 22.9 µM and 25.9 µM.
On the same counts, the results for `CCCCCC(O)c1cccc(OCc2ccc3ccccc3n2)c1` (centres undefined) are 35.4 µM and 56 µM.
For `COc1ccc(OCc2cccc(C(=O)Nn3cc([N+](=O)[O-])cn3)c2)cc1`, the IC50 was 26.2 µM and the IC90 worked out at 42.9 µM.
On the same counts, the results for `O=C(C[n+]1cc(-c2ccc(Cl)cc2)n2c1CCC2)Nc1nc(-c2ccccc2)cs1` are 23.4 µM and 26.7 µM.
Take `CC(C)COCc1ccc(O)c2ncccc12`: the IC50 was 2.18 µM and the concentration for an effect of 90% (IC90) is 2.59 µM.
On the same counts, the results for `C(=N\Nc1nc(-c2ccccc2)cs1)/c1ccncc1` are 62.7 µM and 79.9 µM.
The like results for `O=[N+]([O-])c1c(C(Cl)Cl)nn(-c2ccc(Cl)cc2)c1N1CCCCC1` were, in that order, 21.2 µM and 23.3 µM.
Regarding `Cc1cc(C)cc(NC(=O)CCc2ccc(C)o2)c1`, the IC50 is 92.9 µM and the IC90 is above 100 µM.
On the same counts, the results for `CCc1cc(OCCCCNCc2ccccc2)ccc1Cl` are 26.9 µM and 36 µM.
The like results for `CCCCCCCNC(=O)c1ccc(N2CCC3(CC2)OCCO3)c([N+](=O)[O-])c1` were, in that order, 48.3 µM and 67.2 µM.
With `CCOC(=O)N1CCc2c(sc(NC(=O)c3ccc(Cl)s3)c2C(N)=O)C1`, the IC50 was 6.96 µM and the IC90 was 19.1 µM.
The like results for `O=C(NC(=S)Nc1ccc(N2CCCCC2)c(Cl)c1)c1cccs1` were, in that order, 21.2 µM and 29.2 µM.
On the same counts, the results for `Cc1ccn2c(NC3CCCCC3)c(-c3cccc(-c4cccc(Cl)c4)c3)nc2c1` are 26.4 µM and 36.3 µM.
Consider `Cc1ccc(C(C(=O)NCC2CCCO2)N(Cc2ccccc2)C(=O)c2ccc(-c3ccccc3)[nH]2)o1` (centres undefined), for which the IC50 was 60.9 µM and the concentration for an effect of 90% (IC90) is above 100 µM.
On to `Cc1ccc2c(c1)nnn2C1CCN(CC(=O)N2CCN(c3ccc(F)cc3)CC2)CC1`, for which the half-maximal inhibitory concentration (IC50) was 36.8 µM and the 90% effect concentration (IC90) stood at 54.7 µM.
The like results for `CCCCn1c(=O)c(C(=O)Nc2ncccc2C)c(O)c2ccccc21` were, in that order, 17 µM and 22.1 µM.
For the compound `O=C(OCC(=O)N1CCCCC1)c1cc2ccccc2cc1O`, the IC50 was 2.95 µM and the 90% effect concentration (IC90) is 3.42 µM.
The like results for `Oc1ccc(CN2CCc3ccccc3C2)c2cccnc12` were, in that order, 72.7 µM and above 100 µM.
As to `C[N+](C)(CCCCCC[N+](C)(C)CCCN1C(=O)c2cccc3cccc(c23)C1=O)CCCN1C(=O)c2cccc3cccc(c23)C1=O`, the IC50 was 3.64 µM and the IC90 worked out at 5.15 µM.
On the same counts, the results for `CC1(c2nnc(-c3ccncc3)o2)CC(c2ccccc2)=NO1` (centres undefined) are 68.5 µM and above 100 µM.
As for `Cc1ccc(CNc2ccc3c(c2)ncn3C(C)(C)C)cc1`, the IC50 was 19.9 µM and the IC90 was found to be 28.8 µM.
The like results for `CC(OC(=O)COc1ccc(Nc2ccccc2)cc1)C(=O)N(C)c1ccccc1` (centres undefined) were, in that order, 2.16 µM and 10.9 µM.
`O=[N+]([O-])c1cc(Cl)c(O)c(-[n+]2c(-c3ccccc3)cc(-c3ccccc3)cc2-c2ccccc2)c1`: the IC50 was 4.63 µM and the IC90 worked out at 7.3 µM.
On the same counts, the results for `C/C(Cl)=C\COc1cc(C)nc2c(Br)cccc12` are 21.2 µM and 24.4 µM.
As to `Cc1nc(N)nc(N)c1CCCc1ccc(Cl)c(Cl)c1`, the concentration for half-maximal inhibition (IC50) is 87.4 µM and the IC90 is above 100 µM.
The like results for `CCN(CC)C(=O)Oc1ccc2c(=O)c(-c3ccc(OC)cc3)coc2c1` were, in that order, 52.8 µM and above 100 µM.
On the same counts, the results for `COc1ccc(-c2nnc(NC(=O)c3ccc([N+](=O)[O-])o3)o2)c(OC)c1` are 6.13 µM and 14 µM.
On to `C[CH2][Hg][S]c1ccccc1C(=O)O`, for which the concentration for half-maximal inhibition (IC50) was 0.52 µM and the 90% effect concentration (IC90) turned out to be 1.26 µM.
Turning to `CNc1ncnc2c1ncn2[C@@H]1O[C@H](CO)[C@@H](O)[C@H]1O`, the IC50 is 3.97 µM and the 90% effect concentration (IC90) was 9.18 µM.
On the same counts, the results for `Cc1nnc(-c2ccccc2)c(=O)n1/N=C/c1c(O)ccc2ccccc12` are 22.1 µM and 24.7 µM.
As to `CN(C)C/C=C/C(=O)Nc1cccc(-c2c[nH]c3ncnc(Oc4ccc(NC(=O)CC(=O)Nc5ccc(F)cc5)cc4F)c23)c1`, the IC50 was 12.3 µM and the IC90 is 14 µM.
The like results for `O=C1Nc2ccccc2/C1=N\N=C\C1=C(N2CCOCC2)C(=C\c2ccccc2)/CC1` were, in that order, 36.5 µM and above 100 µM.
The like results for `Cc1nc2scc(-c3cccs3)c2c(=O)n1-n1cccc1` were, in that order, 88.7 µM and above 100 µM.
On to `O=C(OCc1csc(Nc2ccccc2)n1)c1ccc(Cl)cc1`, for which the concentration for half-maximal inhibition (IC50) is 46.4 µM and the IC90 worked out at 53 µM.
Take `O=C1C(Cl)=C(N2CCOCC2)C(=O)N1c1cccc(Cl)c1`: the concentration for half-maximal inhibition (IC50) is 6.48 µM and the IC90 came out at 12.6 µM.
On the same counts, the results for `CO/N=C(\Cn1ncc(N2CCCC2)c(Cl)c1=O)c1ccc(Cl)cc1` are 23.7 µM and 26.9 µM.
